Assay results as given in patent publication US20230391796A1, “GLYCOSIDASE INHIBITORS AND USES THEREOF” (UNIVERSIDAD DE SEVILLA (US) -UNIVERSITY OF SEVILLE (US), priority 2020, published 2023).
Structures can show the parent of a compound that is named as a salt.

Experiments:
Format in all cases: biochemical
[1] = molecular target: β-N-acetylglucosaminidase (from jack bean); assay: Inhibition assay against commercial β-N-acetylglucosaminidase (jack bean), p-nitrophenyl N-acetyl-β-D-glucosaminide substrate; details: pH 5.5, 37° C.; average of three determinations ± s.e.m.; NI = no inhibition detected at 200 μM; read-out: Jack beans Hex
Procedure: (§1) Inhibition Assays Against Commercial β-N-acetylglucosaminidases
(§2) Inhibition constant (Ki) values were determined by spectrophotometrically measuring the residual hydrolytic activities of the glycosidases against p-nitrophenyl N-acetyl-β-D-glucosaminide. […] Each assay was performed in phosphate-citrate buffer and the reactions were initiated by addition of the enzyme to a solution of the substrate in the absence or presence of various inhibitor concentrations. The mixture was incubated for 10-30 min at 37° C. and the reaction was quenched by addition of 1 M Na2CO3. Reaction times were appropriate to obtain 10-20% conversion of the substrate in order to achieve linear rates. The absorbance of the resulting mixture was determined at 405 nm. Approximate values of Ki were determined using a fixed concentration of substrate (around the Km value for the different glycosidases) and various inhibitor concentrations. Full Ki determinations and enzyme inhibition mode were determined from the slope of Lineweaver-Burk plots and double reciprocal analysis using a Microsoft Office Excel 2007 program.

[2] = molecular target: β-N-acetylglucosaminidase (from human placenta); assay: Inhibition assay against commercial β-N-acetylglucosaminidase (human placenta), p-nitrophenyl N-acetyl-β-D-glucosaminide substrate; details: pH 5.5, 37° C.; average of three determinations ± s.e.m.; read-out: Human placenta Hex
Procedure: as §1, §2

[3] = molecular target: β-N-acetylglucosaminidase (from bovine kidney); assay: Inhibition assay against commercial β-N-acetylglucosaminidase (bovine kidney), p-nitrophenyl N-acetyl-β-D-glucosaminide substrate; details: pH 5.5, 37° C.; average of three determinations ± s.e.m.; NI = no inhibition detected at 200 μM; read-out: Bovine kidney Hex
Procedure: as §1, §2

[4] = molecular target: T1, hOGA (Homo sapiens, UniProt O60502); assay: Inhibition assay against hOGA, resorufin N-acetyl-β-D-glucosaminide fluorescence; details: 0.2 nM hOGA, 25 μM substrate, pH 7.1; Morrison Ki
T1 sequence (O60502 1-916): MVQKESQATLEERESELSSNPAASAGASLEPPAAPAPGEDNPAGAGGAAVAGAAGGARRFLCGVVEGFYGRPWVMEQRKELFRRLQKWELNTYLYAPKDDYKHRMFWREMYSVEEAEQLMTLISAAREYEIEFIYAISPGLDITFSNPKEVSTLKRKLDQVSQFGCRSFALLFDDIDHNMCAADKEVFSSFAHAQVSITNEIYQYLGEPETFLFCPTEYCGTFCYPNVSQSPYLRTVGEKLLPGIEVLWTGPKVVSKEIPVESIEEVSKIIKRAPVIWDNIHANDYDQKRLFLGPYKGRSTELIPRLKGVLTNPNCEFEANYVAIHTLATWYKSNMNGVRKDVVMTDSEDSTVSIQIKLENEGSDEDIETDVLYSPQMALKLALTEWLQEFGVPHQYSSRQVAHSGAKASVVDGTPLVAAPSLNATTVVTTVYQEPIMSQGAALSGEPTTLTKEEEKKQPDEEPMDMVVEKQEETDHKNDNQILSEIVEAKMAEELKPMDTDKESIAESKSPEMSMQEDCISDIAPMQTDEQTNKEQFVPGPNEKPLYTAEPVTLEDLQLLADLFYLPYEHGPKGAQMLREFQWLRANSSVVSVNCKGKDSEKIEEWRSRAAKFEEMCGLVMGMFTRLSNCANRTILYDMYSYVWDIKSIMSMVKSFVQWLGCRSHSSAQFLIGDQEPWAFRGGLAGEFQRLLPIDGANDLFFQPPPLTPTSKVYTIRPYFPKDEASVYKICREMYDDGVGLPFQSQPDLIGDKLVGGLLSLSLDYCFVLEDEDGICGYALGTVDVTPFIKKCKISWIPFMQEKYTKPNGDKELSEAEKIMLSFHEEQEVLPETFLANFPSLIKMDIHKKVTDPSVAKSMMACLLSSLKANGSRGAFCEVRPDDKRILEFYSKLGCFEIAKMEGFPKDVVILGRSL
Procedure: Inhibition Assays Against hOGA
Km=25 μM was measured with these conditions. Inhibition assays were run at 0.2 nM [hOGA] in the same buffer, in the presence or absence of various concentrations of inhibitors and at a fixed substrate concentration of 25 μM and 1% DMSO. First, inhibitor was serially diluted to the desired range of concentrations in 2% DMSO buffer. Next, 50 μL of inhibitor solutions at various concentrations in 2% DMSO Buffer was added to 50 μL of 0.8 nM enzyme and allowed to incubate at 25° C. for 5 minutes. 100 uL of 50 μM and 1% DMSO substrate was then added and reaction mixture was immediately mixed and aliquoted in 45 μL triplicates to a CORNING 384 well black plate. Fluorescence signal was measured continuously for 20 minutes at 37° C. in a BioTek Neo 2 Plate reader set at excitation and emission wavelengths of 572 and 610 nm, respectively. Max reaction rates for all inhibitor concentrations were calculated within Gen5 BioTek reader software. % Activity was subsequently calculated for each inhibitor concentration against the max reaction rate of uninhibited hOGA. GraphPad Prism 2016 was used to approximate the Morrison Ki values for each inhibitor.

[5] = molecular target: T2, Recombinant Human Hexosaminidase A (HexA) (Homo sapiens, UniProt P06865); assay: Inhibition assay against rhHexA, 4-methylumbelliferone-N-acetyl-β-D-glucosaminide fluorescence; details: IC50 for lysosomal hHexA; NI = no inhibition detected at 200 μM
T2 construct: purchased R&D Systems 6237-GH-020
T2 sequence (P06865 89-529): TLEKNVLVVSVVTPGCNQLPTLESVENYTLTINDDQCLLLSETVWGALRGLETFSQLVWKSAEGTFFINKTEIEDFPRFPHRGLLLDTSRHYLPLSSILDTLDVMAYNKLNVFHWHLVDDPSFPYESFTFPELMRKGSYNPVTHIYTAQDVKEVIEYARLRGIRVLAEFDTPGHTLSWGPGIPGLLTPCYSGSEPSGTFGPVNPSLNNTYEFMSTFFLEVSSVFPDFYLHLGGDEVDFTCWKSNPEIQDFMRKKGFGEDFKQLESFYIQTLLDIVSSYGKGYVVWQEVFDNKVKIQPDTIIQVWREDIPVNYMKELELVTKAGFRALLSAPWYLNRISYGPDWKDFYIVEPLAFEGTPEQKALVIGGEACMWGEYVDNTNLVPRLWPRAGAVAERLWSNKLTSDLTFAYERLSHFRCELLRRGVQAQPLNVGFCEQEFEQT
Procedure: Inhibition Assays Against rhHexA
Human Hexosaminidase A (HexA) enzyme, purchased from R&D Systems (cat# 6237-GH-020), were determined by measuring the fluorescent signal corresponding to the rate of hydrolytic activity against the commercially available artificial substrate, 4-Methylumbelliferone-N-acetyl-β-D-glucosaminide. HexA activity assays were performed in a buffer of 100 mM sodium citrate, 250 NaCl, pH 4.5 and 1.0 nM [HexA], then stopped after 20 minutes with a solution of 1.0 M Tris, pH 9.5 to enhance fluorescent signal. Preliminary experiments have shown that reaction rates are linear for 20 minutes after substrate addition, and that 1.0 M Tris at pH 9.5 is sufficient for stopping activity, as signal is stable after stopping. Inhibition assays were run in the presence or absence of various concentrations of inhibitors and at a fixed substrate concentration of 100 μM and 1% DMSO. First, inhibitor was serially diluted to the desired range of concentrations in 2% DMSO buffer. Next, 25 μL, of inhibitor solutions at various concentrations in 2% DMSO Buffer was added to 25 μL, of 4.0 nM enzyme and allowed to incubate at 25° C. for 5 minutes. 50 μL of 200 μM and 1% DMSO substrate was then added and allowed to react for 20 minutes. 100 μL of stop solution was added to reaction mixture, and immediately mixed and aliquoted in 45 μL triplicates to a CORNING 384 well black plate. Fluorescence signal was measured in a BioTek Neo 2 Plate reader set at excitation and emission wavelengths of 355 and 450 nm, respectively. % Activity was subsequently calculated for each inhibitor concentration against the fluorescence signal of uninhibited HexA. […]

SMILES | Ki [1] [nM] | Ki [2] [nM] | Ki [3] [nM] | Ki [4] [nM] | IC50 [5] [nM]
CC(=O)N[C@H]1CN2/C(=N/Cc3ccc(C(F)(F)F)cc3)SC[C@@H]2[C@@H](O)[C@@H]1O [Compound 8, 2-Acetamido-5-N,6-S-(N′-p-trifluoromethylbenzyliminomethylidene)-1,2-dideoxy-6-thionojirimycin hydrochloride] | 1500 ± 100 | 400 ± 30 | 430 ± 40 | 47.7 | –
CC(=O)N[C@H]1CN2/C(=N/Cc3cccc(CN=[N+]=[N-])c3)SC[C@@H]2[C@@H](O)[C@@H]1O [Compound 10, 2-Acetamido-5-N,6-S-(N′-m-azidomethylbenzyliminomethylidene)-1,2-dideoxy-6-thionojirimycin Hydrochloride] | 3130 ± 800 | – | 830 ± 60 | 0.223 | –
CCCCN=C1SCC2C(O)C(O)C(NC(C)=O)CN12 (stereo not drawn) [Compound 1, 2-Acetamido-5-N,6-S-(N′-butyliminomethylidene)-1,2-dideoxy-6-thionojirimycin Hydrochloride] | 850 ± 60 | 240 ± 20 | 570 ± 40 | 24.1 | 990
CC(=O)N[C@H]1CN2/C(=N/c3ccccc3)SC[C@@H]2[C@@H](O)[C@@H]1O [Compound 3, 2-Acetamido-1,2-dideoxy-5-N,6-S-(N′-phenyliminomethylidene)-6-thionojirimycin Hydrochloride] | 2800 ± 200 | 580 ± 40 | 700 ± 50 | 399 | 410
CCCCCCCCN=C1SCC2C(O)C(O)C(NC(C)=O)CN12 (stereo not drawn) [Compound 2, 2-Acetamido-1,2-dideoxy-5-N,6-S-(N′-octyliminomethylidene)-6-thionojirimycin Hydrochloride] | 1300 ± 100 | 240 ± 20 | 190 ± 20 | 20.2 | 580
COc1ccc(C/N=C2\SC[C@@H]3[C@@H](O)[C@H](O)[C@@H](NC(C)=O)CN23)cc1 [Compound 7, 2-N-Acetyl-5-N,6-S-(N′-p-methoxybenzyliminomethylidene)-1,2-dideoxy-6-thionojirimycin Hydrochloride] | 2200 ± 100 | 730 ± 40 | 1200 ± 100 | 27.8 | –
CC(=O)N[C@H]1CN2/C(=N/Cc3ccc(CN=[N+]=[N-])cc3)SC[C@@H]2[C@@H](O)[C@@H]1O [Compound 11, 2-Acetamido-5-N,6-S-(N′-p-azidomethylbenzyliminomethylidene)-1,2-dideoxy-6-thionojirimycin Hydrochloride] | 3400 ± 800 | – | 720 ± 50 | 0.438 | –

Next, values leading:

Ki [1] [nM] | Ki [2] [nM] | Ki [3] [nM] | Ki [4] [nM] | IC50 [5] [nM] | SMILES
3070 ± 300 | – | 910 ± 90 | 0.278 | – | CC(=O)N[C@H]1CN2/C(=N/Cc3ccccc3CN=[N+]=[N-])SC[C@@H]2[C@@H](O)[C@@H]1O [Compound 9, 2-Acetamido-5-N,6-S-(N′-o-azidomethylbenzyliminomethylidene)-1,2-dideoxy-6-thionojirimycin Hydrochloride]
2400 ± 200 | – | 890 ± 800 | 0.292 | – | CC(=O)N[C@H]1CN2/C(=N/Cc3cccc4ccccc34)SC[C@@H]2[C@@H](O)[C@@H]1O [Compound 5, 2-Acetamido-5-N,6-S-(N′-1-naphthylmethyliminomethylidene)-1,2-dideoxy-6-thionojirimycin Hydrochloride]
2450 ± 320 | – | 1420 ± 120 | 0.918 | – | CC(=O)N[C@H]1CN2/C(=N/CCc3ccccc3)SC[C@@H]2[C@@H](O)[C@@H]1O [Compound 12, 2-Acetamido-5-N,6-S-(N′-2-phenylethyliminomethylidene)-1,2-dideoxy-6-thionojirimycin Hydrochloride]
3200 ± 300 | 280 ± 20 | 1500 ± 200 | 53.8 | – | CC(=O)N[C@H]1CN2/C(=N/Cc3ccc(F)cc3)SC[C@@H]2[C@@H](O)[C@@H]1O [Compound 6, 2-N-Acetyl-5-N,6-S-(N′-p-fluorobenzyliminomethylidene)-1,2-dideoxy-6-thionojirimycin Hydrochloride]
